# Earlier results in patent publication US20260183398A1, “RADIOLUMINESCENT NANOPARTICLES FOR RADIATION-TRIGGERED CONTROLLED RELEASE DRUGS” (Purdue Research Foundation, priority 2017, published 2026).
# Experiments:
# [1] = systemic chemotherapy, about 200 mg/m2
# [2] = reported
# [3] = PTX intratumorally delivered to mouse xenografts in the polymer encapsulated form
smiles,measurement,setting,value
"CC(=O)O[C@H]1C(=O)[C@@]2(C)[C@H]([C@H](OC(=O)c3ccccc3)[C@]3(O)C[C@H](OC(=O)[C@H](O)[C@@H](NC(=O)c4ccccc4)c4ccccc4)C(C)=C1C3(C)C)[C@]1(OC(C)=O)CO[C@@H]1C[C@@H]2O [PTX, paclitaxel]","patients with dermatological side effects (skin, hair, nail)",[1],86.8%
same,in vitro IC90,[2],≈ 0.09 μg PTX per mg tumor
same,in vitro IC90 (PTX concentration giving rise to 90% cell kill in vitro),[2],about 90 μg/mL
same,tumor elimination rate constant ket,[3],"0,005 h^−1"
